Data published in US3962243A (Laboratories Made, S.A., priority 1974, dated 1976).

What was measured:
mice = assay: Sub-acute and chronic toxicity; type: in vivo; settings: administration to mice over periods of 2 and 6 months
[1] = tested on: rat complete brain homogenates; assay: Action on cerebral oxidative activity (oxygen consumption); settings: 1 × 10^-^3 and 1 × 10^-^4 M
bronchial spasm = assay: Bronchial spasmolytic action; type: in vivo

With “2-[(2-dimethylaminoethyl) (p-methoxybenzyl)amino]-pyridine 1,2,3,6-tetrahydro-1,3-dimethyl-2,6-dioxopurin-7-acetate” the “microscopic or macroscopic organ alteration” value (mice) was “No microscopic or macroscopic organ alteration”, the “inhibition of the oxygen consumption” value [1] was “strong inhibition of the oxygen consumption” and the “duration of activity, bronchial spasmolytic action” value (bronchial spasm; in vivo) was “over 5 hours”. The “action against bronchial spasm by route” value (bronchial spasm; oral, rectal, intramuscular and intravenous) was “Effective action against bronchial spasm is obtainable by all routes” and the “active dose, bronchial spasmolytic action” value (bronchial spasm; very small doses) was 6 µg/kg.
